Data: patent US12723063B2, “GIPR-agonist compounds” (Eli Lilly and Company, priority 2019, dated 2026)
*1 amine or outer side, *2 acyl side, *3 side chain or, on linkers, in order; H or OH if unused. Where a SMILES comes first, the peptide text is derived from it. Side-chain parts run from the residue outwards. [ ]: non-standard residue; d: D form. The star is where a group is joined. C20 diacid = O=C(O)CCCCCCCCCCCCCCCCCCC(=O)*; γGlu = O=C(O)[C@H](CCC(=O)[*:2])N[*:1]; αMeY = C[C@](N)(Cc1ccc(O)cc1)C(=O)O; αMeL = CC(C)C[C@](C)(N)C(=O)O; Orn = NCCC[C@H](N)C(=O)O; AEEA = NCCOCCOCC(=O)O; Aib = CC(C)(N)C(=O)O

Biological target: T1, human GcgR (Homo sapiens, UniProt P47871)
T1 construct: expressed in transfected cells; crude membranes
Test: [125I]-Glucagon binding, SPA with WGA beads, 0.1% bacitracin
Settings: geometric mean, read-out: hGcgR Ki
Description: Stably transfected cell lines are prepared by subcloning receptor cDNA into a pcDNA3 expression plasmid and transfected into human embryonic kidney (HEK) 293 (hGcgR and hGLP-1R) or Chinese Hamster Ovary (CHO) (hGIPR) cells followed by selection with Geneticin (hGLP-1R and hGIPR) or hygromycin B (hGcgR).
Two methods are used for the preparation of crude cell membranes.
Method 1: Frozen cell pellets are lysed on ice in hypotonic buffer containing 50 mM Tris HCl, pH 7.5, and Roche Complete™ Protease Inhibitors with EDTA. The cell suspension is disrupted using a glass Potter-Elvehjem homogenizer fitted with a Teflon® pestle for 25 strokes. The homogenate is centrifuged at 4° C. at 1100× g for 10 minutes. The supernatant is collected and stored on ice while the pellets are resuspended in homogenization buffer and rehomogenized as described above. The homogenate is centrifuged at 1100× g for 10 minutes. The second supernatant is combined with the first supernatant and centrifuged at 35000× g for 1 hour at 4° C. The resulting membrane pellet is resuspended in homogenization buffer containing protease inhibitors at approximately 1 to 3 mg/mL, quick frozen in liquid nitrogen and stored as aliquots in a −80° C. freezer until use.
Method 2: Frozen cell pellets are lysed on ice in hypotonic buffer containing 50 mM Tris HCl, pH 7.5, 1 mM MgCl2, Roche Complete™ EDTA-free Protease Inhibitors and 25 units/mL DNAse I (Invitrogen). The cell suspension is disrupted using a glass Potter-Elvehjem homogenizer fitted with a Teflon® pestle for 20 to 25 strokes. The homogenate is centrifuged at 4° C. at 1800× g for 15 minutes. The supernatant is collected and stored on ice while the pellets are resuspended in homogenization buffer (without DNAse I) and rehomogenized as described above. The homogenate is centrifuged at 1800× g for 15 minutes. The second supernatant is combined with the first supernatant and centrifuged an additional time at 1800× g for 15 minutes. The overall supernatant is then centrifuged at 25000× g for 30 minutes at 4° C. The resulting membrane pellet is resuspended in homogenization buffer (without DNAse I) containing protease inhibitors at approximately 1 to 3 mg/mL and stored as aliquots in a −80° C. freezer until use.
The human Geg receptor binding assays are performed using a Scintillation Proximity Assay (SPA) format with wheat germ agglutinin (WGA) beads (Perkin Elmer). The binding buffer contains 25 mM 4-(2-hydroxyethyl)-1-piperazineethanesulfonic acid (HEPES), pH 7.4, 2.5 mM CaCl2), 1 mM MgCl2, 0.1% (w/v) bacitracin (Research Products), 0.003% (w/v) Polyoxyethylenesorbitan monolaurate (TWEEN®-20), and Roche Complete™ Protease Inhibitors without EDTA. Peptides and Gcg are thawed and 3-fold serially diluted in 100% DMSO (10 point concentration response curves). Next, 5 μL serially diluted compound or DMSO is transferred into Corning® 3632 clear bottom assay plates containing 45 μL assay binding buffer or unlabeled Gcg control (non-specific binding or NSB, at 1 μM final). […] Plates are sealed and mixed on a plate shaker (setting 6) for 1 minute and read with a PerkinElmer Trilux MicroBeta® scintillation counter after 12 hours of incubation/settling time at room temperature.
Data are analyzed using four-parameter (curve maximum, curve minimum, IC50, Hill slope) nonlinear regression routines (Genedata Screener, version 12.0.4, Genedata AG, Basal, Switzerland). […] Values for Ki are reported as the geometric mean, with error expressed as the standard error of the mean (SEM) and n is equal to the number of independent replicates (determined in assays performed on different days). […] SEM is only calculated when […] or greater. Means are expressed as geometric means with the standard error of the mean (SEM) and the number of replicates (n) indicated in parentheses.

T1 sequence (P47871 26-477): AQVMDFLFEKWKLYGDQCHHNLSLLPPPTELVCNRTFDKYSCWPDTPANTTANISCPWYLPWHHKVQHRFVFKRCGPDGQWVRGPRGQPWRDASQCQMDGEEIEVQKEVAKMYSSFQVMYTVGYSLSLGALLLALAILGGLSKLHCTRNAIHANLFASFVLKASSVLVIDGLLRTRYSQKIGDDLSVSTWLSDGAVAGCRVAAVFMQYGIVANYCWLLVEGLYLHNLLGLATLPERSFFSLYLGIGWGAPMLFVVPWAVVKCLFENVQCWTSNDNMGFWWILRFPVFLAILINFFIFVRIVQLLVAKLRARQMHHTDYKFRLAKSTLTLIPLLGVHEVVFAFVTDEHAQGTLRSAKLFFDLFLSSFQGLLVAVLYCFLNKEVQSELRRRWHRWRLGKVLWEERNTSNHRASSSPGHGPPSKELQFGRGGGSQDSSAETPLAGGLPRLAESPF

SMILES | Ki [nM]
CC[C@H](C)[C@H](NC(=O)[C@H](Cc1ccccc1)NC(=O)[C@@H](NC(=O)CNC(=O)[C@H](CCC(=O)O)NC(=O)C(C)(C)NC(=O)[C@@H](N)Cc1ccc(O)cc1)[C@@H](C)O)C(=O)N[C@@H](CO)C(=O)N[C@@H](CC(=O)O)C(=O)N[C@@H](Cc1ccc(O)cc1)C(=O)N[C@@H](CO)C(=O)N[C@H](C(=O)N[C@@](C)(CC(C)C)C(=O)N[C@@H](CC(C)C)C(=O)N[C@@H](CC(=O)O)C(=O)N[C@@H](CCCCN)C(=O)N[C@@H](CCCCNC(=O)COCCOCCNC(=O)COCCOCCNC(=O)CC[C@H](NC(=O)CCCCCCCCCCCCCCCCCCC(=O)O)C(=O)O)C(=O)N[C@@H](Cc1c[nH]cn1)C(=O)N[C@@H](CCC(N)=O)C(=O)NC(C)(C)C(=O)N[C@@H](CC(=O)O)C(=O)N[C@@H](Cc1ccccc1)C(=O)N[C@H](C(=O)N[C@@H](CCC(=O)O)C(=O)N[C@@](C)(Cc1ccc(O)cc1)C(=O)N[C@@H](CC(C)C)C(=O)N[C@@H](CC(C)C)C(=O)N[C@@H](CCC(=O)O)C(=O)NCC(=O)NCC(=O)N1CCC[C@H]1C(=O)N[C@@H](CO)C(=O)N[C@@H](CO)C(=O)NCC(=O)N[C@@H](C)C(=O)N1CCC[C@H]1C(=O)N1CCC[C@H]1C(=O)N1CCC[C@H]1C(=O)N[C@@H](CO)C(N)=O)C(C)C)[C@@H](C)CC [Example 91] (H-Y[Aib]EGTFISDYSI[αMeL]LDKK([AEEA-AEEA-γGlu-C20 diacid])HQ[Aib]DFVE[αMeY]LLEGGPSSGAPPPS-NH2) | 54.4
CC[C@H](C)[C@H](NC(=O)[C@H](Cc1ccccc1)NC(=O)[C@@H](NC(=O)CNC(=O)[C@H](CCC(=O)O)NC(=O)C(C)(C)NC(=O)[C@@H](N)Cc1ccc(O)cc1)[C@@H](C)O)C(=O)N[C@@H](CO)C(=O)N[C@@H](CC(=O)O)C(=O)N[C@@H](Cc1ccc(O)cc1)C(=O)N[C@@H](CO)C(=O)N[C@H](C(=O)N[C@@](C)(CC(C)C)C(=O)N[C@@H](CC(C)C)C(=O)N[C@@H](CC(=O)O)C(=O)N[C@@H](CCC(=O)O)C(=O)N[C@@H](CCCCNC(=O)COCCOCCNC(=O)COCCOCCNC(=O)CC[C@H](NC(=O)CCCCCCCCCCCCCCCCCCC(=O)O)C(=O)O)C(=O)N[C@@H](Cc1c[nH]cn1)C(=O)N[C@@H](CCC(N)=O)C(=O)NC(C)(C)C(=O)N[C@@H](CC(=O)O)C(=O)N[C@@H](Cc1ccccc1)C(=O)N[C@H](C(=O)N[C@@H](CCC(=O)O)C(=O)N[C@@H](Cc1ccncc1)C(=O)N[C@@H](CC(C)C)C(=O)N[C@@H](CC(C)C)C(=O)N[C@@H](C)C(=O)N[C@@H](C)C(=O)NCC(=O)N1CCC[C@H]1C(=O)N[C@@H](CO)C(=O)N[C@@H](CO)C(=O)NCC(=O)N[C@@H](C)C(=O)N1CCC[C@H]1C(=O)N1CCC[C@H]1C(=O)N1CCC[C@H]1C(=O)N[C@@H](CO)C(N)=O)C(C)C)[C@@H](C)CC [Example 85] | 800
CC[C@H](C)[C@H](NC(=O)[C@H](CCCN)NC(=O)[C@H](CC(=O)O)NC(=O)[C@H](CC(C)C)NC(=O)[C@](C)(CC(C)C)NC(=O)[C@@H](NC(=O)[C@H](CO)NC(=O)[C@H](Cc1ccc(O)cc1)NC(=O)[C@H](CC(=O)O)NC(=O)[C@H](CO)NC(=O)[C@@H](NC(=O)[C@H](Cc1ccccc1)NC(=O)[C@@H](NC(=O)CNC(=O)[C@H](CCC(=O)O)NC(=O)C(C)(C)NC(=O)[C@@H](N)Cc1ccc(O)cc1)[C@@H](C)O)[C@@H](C)CC)[C@@H](C)CC)C(=O)N[C@@H](CCCNC(=N)N)C(=O)N[C@@H](CCC(N)=O)C(=O)NC(C)(C)C(=O)N[C@@H](CC(=O)O)C(=O)N[C@@H](Cc1ccccc1)C(=O)N[C@H](C(=O)N[C@@H](CCC(=O)O)C(=O)N[C@@H](Cc1ccc(O)cc1)C(=O)N[C@@H](CCCCNC(=O)COCCOCCNC(=O)COCCOCCNC(=O)CC[C@H](NC(=O)CCCCCCCCCCCCCCCCCCC(=O)O)C(=O)O)C(=O)N[C@@H](CC(C)C)C(=O)N[C@@H](CCC(=O)O)C(=O)NCC(=O)NCC(=O)N1CCC[C@H]1C(=O)N[C@@H](CO)C(=O)N[C@@H](CO)C(=O)NCC(=O)N[C@@H](C)C(=O)N1CCC[C@H]1C(=O)N1CCC[C@H]1C(=O)N1CCC[C@H]1C(=O)N[C@@H](CO)C(N)=O)C(C)C [Example 116] (H-Y[Aib]EGTFISDYSI[αMeL]LD[Orn]IRQ[Aib]DFVEYK([AEEA-AEEA-γGlu-C20 diacid])LEGGPSSGAPPPS-NH2) | 178
CC[C@H](C)[C@H](NC(=O)[C@H](Cc1ccccc1)NC(=O)[C@@H](NC(=O)CNC(=O)[C@H](CCC(=O)O)NC(=O)C(C)(C)NC(=O)[C@@H](N)Cc1ccc(O)cc1)[C@@H](C)O)C(=O)N[C@@H](CO)C(=O)N[C@@H](CC(=O)O)C(=O)N[C@@H](Cc1ccc(O)cc1)C(=O)N[C@@H](CO)C(=O)N[C@H](C(=O)N[C@@](C)(CC(C)C)C(=O)N[C@@H](CC(C)C)C(=O)N[C@@H](CC(=O)O)C(=O)N[C@@H](CCCCN)C(=O)N[C@@H](CCCCNC(=O)COCCOCCNC(=O)COCCOCCNC(=O)CC[C@H](NC(=O)CCCCCCCCCCCCCCCCCCC(=O)O)C(=O)O)C(=O)N[C@@H](Cc1c[nH]cn1)C(=O)N[C@@H](CCC(N)=O)C(=O)NC(C)(C)C(=O)N[C@@H](CC(=O)O)C(=O)N[C@@H](Cc1ccccc1)C(=O)N[C@H](C(=O)N[C@@H](CCC(=O)O)C(=O)N[C@@H](Cc1ccncc1)C(=O)N[C@@H](CC(C)C)C(=O)N[C@@H](CC(C)C)C(=O)N[C@@H](C)C(=O)N[C@@H](C)C(=O)NCC(=O)N1CCC[C@H]1C(=O)N[C@@H](CO)C(=O)N[C@@H](CO)C(=O)NCC(=O)N[C@@H](C)C(=O)N1CCC[C@H]1C(=O)N1CCC[C@H]1C(=O)N1CCC[C@H]1C(=O)N[C@@H](CO)C(N)=O)C(C)C)[C@@H](C)CC [Example 78] | 505
CC[C@H](C)[C@H](NC(=O)[C@H](CCCCN)NC(=O)[C@H](CC(=O)O)NC(=O)[C@H](CC(C)C)NC(=O)[C@](C)(CC(C)C)NC(=O)[C@@H](NC(=O)[C@H](CO)NC(=O)[C@H](Cc1ccc(O)cc1)NC(=O)[C@H](CC(=O)O)NC(=O)[C@H](CO)NC(=O)[C@@H](NC(=O)[C@H](Cc1ccccc1)NC(=O)[C@@H](NC(=O)CNC(=O)[C@H](CCC(=O)O)NC(=O)C(C)(C)NC(=O)[C@@H](N)Cc1ccc(O)cc1)[C@@H](C)O)[C@@H](C)CC)[C@@H](C)CC)C(=O)N[C@@H](CCCNC(=N)N)C(=O)N[C@@H](CCC(N)=O)C(=O)NC(C)(C)C(=O)N[C@@H](CC(=O)O)C(=O)N[C@@H](Cc1ccccc1)C(=O)N[C@H](C(=O)N[C@@H](CCC(=O)O)C(=O)N[C@@H](Cc1ccc(O)cc1)C(=O)N[C@@H](CCCCNC(=O)COCCOCCNC(=O)COCCOCCNC(=O)CC[C@H](NC(=O)CCCCCCCCCCCCCCCCCCC(=O)O)C(=O)O)C(=O)N[C@@H](CC(C)C)C(=O)N[C@@H](CCC(=O)O)C(=O)NCC(=O)NCC(=O)N1CCC[C@H]1C(=O)N[C@@H](CO)C(=O)N[C@@H](CO)C(=O)NCC(=O)N[C@@H](C)C(=O)N1CCC[C@H]1C(=O)N1CCC[C@H]1C(=O)N1CCC[C@H]1C(=O)N[C@@H](CO)C(N)=O)C(C)C [Example 115] (H-Y[Aib]EGTFISDYSI[αMeL]LDKIRQ[Aib]DFVEYK([AEEA-AEEA-γGlu-C20 diacid])LEGGPSSGAPPPS-NH2) | 373
